# Source: patent publication US20250345370A1, “MICROBIAL LIBERATION OF N-METHYLSEROTONIN FROM ORANGE FIBER” (Washington University, priority 2022, published 2025)
# Experiments:
# [1] = Tissue metabolites (liver glycogen and precursors, colonic glutamate) in germ-free mice given N-methylserotonin; type: in vivo, germ-free C57BL/6J mice
# Procedure: For experiments involving administration of N-methylserotonin to germ-free mice, a stock solution of the compound (100 mg/mL, Santa Cruz Biotechnologies) was prepared in sterile water and filter sterilized ([…]; Nalgene). The outer surface of tubes containing the stock solution was sterilized with Clidox (Pharmacal) and the tubes were introduced into gnotobiotic isolators using standard procedures. The stock solution was then diluted in darkened glass water bottles (Ancare) in order to administer doses of 1 mg/kg/day or 50 mg/kg/day (based on an experimentally determined average consumption of 5 mL of water/day/mouse). Every four days, bottles were replaced with new ones containing fresh N-methylserotonin. Each of the three arms of the experiment, including the control arm where unsupplemented drinking water was administered, consisted of 5 mice.
# Fecal samples and body weights were collected weekly, while food and water intake were monitored daily by comparing pellet mass in the food hopper and the volume of water in water bottles at the beginning and end of a 24 h period and dividing these values by the number of mice per cage. All animals were euthanized between 0830 h and 0930 h without prior fasting. Luminal contents from the proximal and distal halves of the small intestine, the cecum and the colon, host tissues (liver, epididymal fat pads, gastrocnemius muscle, the distal quarter of the small intestine (ileum), cecum and entire colon) plus serum were collected, flash frozen in liquid nitrogen and stored at −80° C. prior to analyses.
# Other metabolites—Tissue (at least 10 mg) was placed in a reinforced 2 mL tube. A 20 times weight volume of extraction solvent was added (40% acetonitrile, 40% methanol, 20% water) and the tissue was disrupted as described herein. Samples were centrifuged at 12,000×g for 10 minutes at 4° C. A 200 μL aliquot of the resulting supernatant was transferred to a 2 mL glass tube and dried in a speed vacuum at room temperature (25° C.) for two hours. The dry extract was reconstituted in 100 μL of 90% water/10% acetonitrile and stored at −4° C. prior to injection; 5 μL was injected into a 1290 Infmity II UHPLC system coupled to a 6470 Triple Quadrupole LC/MS system equipped with a Jet Stream electrospray ionization source (Agilent Technologies). Chromatographic separation was performed on an Agilent ZORBAX Extend C18, […], 1.8 μm column, using the following gradient conditions: mobile phase A, 10 mM tributylamine and 15 mM acetic acid in 3% methanol (v/v); mobile phase B, 10 mM tributylamine and 15 mM acetic acid in 100% methanol; 0% solvent B (0-2 minutes); 0-20% solvent B (2-7.5 minutes); 20-45% solvent B (7.5-13 minutes); 45-99% solvent B (13-20 minutes); 99-0% solvent B (20-22 minutes) at a flow rate of 0.25 mL/minute. […] Transitions were taken from the Agilent Metabolomics dMRM Database.
# Glutamate is known to […] Arntl when directly applied to tissue slices. Knockout of the Per3 homolog Per2 reduces expression of the glutamate transporter (Eaatl, Slc1A3) and uptake of glutamate in the brain. These observations raise the possibility that one way that N-methylserotonin might influence colonic circadian regulators is through its effects on glutamate levels in this tissue.
# [2] = N-methylserotonin degradation test in bacterial monocultures; conditions: 5 ng/ml added to monocultures of the 14 strains, 72-hour period
# Procedure: Experiments to determine whether N-methylserotonin is synthesized de novo by B. ovatus were carried out in 10 mL TYG with or without supplementation with tryptophan, tryptamine, serotonin, dimethylserotonin, trimethylserotonin, methyltryptamine, or S-adenosyl methionine (final concentrations; 5 mg/mL; all from Sigma). Experiments seeking to test the capacity of all 14 bacterial strains introduced into mice to degrade N-methylserotonin in vitro were carried out using 10 mL TYG and 50 ng N-methylserotonin, with samples collected every 24 hours. Assays were performed in triplicate for each condition, using the protocol described herein.
# Several other experiments were performed to characterize in vitro N-methylserotonin liberation by members of the 14 strain consortia.
# liver gene expression = assay: RNA-Seq of liver of germ-free mice treated with 50 mg/kg/d N-methylserotonin; type: in vivo, germ-free C57BL/6J mice
# Procedure: RNA-Seq of liver and colonic tissue. Frozen tissue was broken into small pieces and ground into a very fine powder under liquid nitrogen using a mortar and pestle. A 25 mg aliquot of powdered tissue was then aliquoted into shearing matrix F (MP Bio) pre-chilled in liquid nitrogen; 0.5 mL of buffer LBP (Takara) was added immediately and the mixture was placed on a 4° C. cold block. Samples were then disrupted (Biospec bead beater; 2 minutes). The remaining steps in the RNA isolation procedure were performed using a Takara Nucleospin RNA Plus kit. […] Libraries were sequenced using an Illumina Hi-Seq instrument (paired end 75 nucleotide reads; 1.43×10^7±3.74×10^6 reads/liver sample, and 3.27×10^7±1.23×10^6 reads/colon sample). Reads were aligned to the Mus musculus GRCm39 genome assembly with STAR version 2.7.0d. Gene count data were generated from the number of uniquely aligned reads (featureCounts Subread version 1.6.2a). The R package DESEQ2 was used to perform differential gene expression analysis; results were filtered based on an adjusted Benjamini and Hochberg FDR p-value<0.05. Gene set enrichment analysis was carried out using ClusterProfiler with an adjusted p-value cut-off of <0.05 and minimum gene-set size of 3; over-representation was carried out using a loge fold-change cut-off of >1.
# Per2 promotes glycogen synthesis. Moreover, genetically engineered disruption of Per3 is associated with resistance to leptin with resulting weight gain, while its deletion directly leads to increased adipogenesis. […] Nfil3 serves as an important link between the gut microbiota, intestinal epithelial lipid metabolism and body composition. […] Moreover, genetic ablation of Nfil3 attenuates high fat diet-induced obesity in mice.
structure (smiles),measurement,setting,value
CNCCc1c[nH]c2ccc(O)cc12 [N-methylserotonin],liver glucose-6-phosphate,[1]; 1 mg/kg/day,the lower dose did not
same,liver glycogen,[1]; 1 mg/kg/day,the lower dose did not
same,liver uridine,[1]; 1 mg/kg/day,the lower dose did not
same,liver uridine monophosphate,[1]; 1 mg/kg/day,the lower dose did not
same,liver glucose-6-phosphate,[1]; 50 mg/kg/day,statistically significant decrease
same,liver glycogen,[1]; 50 mg/kg/day,statistically significant increases
same,liver uridine,[1]; 50 mg/kg/day,statistically significant decreases
same,liver uridine monophosphate,[1]; 50 mg/kg/day,statistically significant decreases
same,glutamate levels in colonic tissue,"[1]; 50 mg/kg/day, untreated controls 11±0.9",21±1.4 ng/mg tissue
same,input N-methylserotonin remaining intact/unmodified,[2],97±2%
same,hepatic levels of Nfil3 mRNA,liver gene expression; 50 mg/kg/d vs untreated,statistically significantly decreased
same,liver expression of Arntl and Clock,liver gene expression; 50 mg/kg/d vs untreated,significantly decreased expression
same,"liver expression of Per2, Per3, and Nr1d2",liver gene expression; 50 mg/kg/d vs untreated,significant increases in expression
same,number of genes with statistically significant differences in expression in liver,"liver gene expression; 50 mg/kg/d vs untreated, FDR adjusted p<0.05",716 genes
same,"log2 fold-change, 0610005C13Rik (Entrez 71661)",liver gene expression; upregulated gene in liver: 0610005C13Rik,0.39
same,"log2 fold-change, 2810013P06Rik (Entrez 100503178)",liver gene expression; upregulated gene in liver: 2810013P06Rik,0.57
same,"log2 fold-change, 4930523C07Rik (Entrez 67647)",liver gene expression; upregulated gene in liver: 4930523C07Rik,0.33
same,"log2 fold-change, Arl13b (Entrez 68146)",liver gene expression; upregulated gene in liver: Arl13b,0.37
same,"log2 fold-change, Ccne2 (Entrez 12448)",liver gene expression; upregulated gene in liver: Ccne2,0.70
same,"log2 fold-change, Clic1 (Entrez 114584)",liver gene expression; upregulated gene in liver: Clic1,0.35
same,"log2 fold-change, Crebrf (Entrez 77128)",liver gene expression; upregulated gene in liver: Crebrf,0.32
same,"log2 fold-change, Dixdc1 (Entrez 330938)",liver gene expression; upregulated gene in liver: Dixdc1,0.32
same,"log2 fold-change, Fam50a (Entrez 108160)",liver gene expression; upregulated gene in liver: Fam50a,0.41
same,"log2 fold-change, Fam126b (Entrez 213056)",liver gene expression; upregulated gene in liver: Fam126b,0.31
same,"log2 fold-change, Hebp1 (Entrez 15199)",liver gene expression; upregulated gene in liver: Hebp1,0.38
same,"log2 fold-change, Ihh (Entrez 16147)",liver gene expression; upregulated gene in liver: Ihh,0.74
same,"log2 fold-change, Kyat1 (Entrez 70266)",liver gene expression; upregulated gene in liver: Kyat1,0.24
same,"log2 fold-change, Map1lc3b (Entrez 67443)",liver gene expression; upregulated gene in liver: Map1lc3b,0.28
same,"log2 fold-change, Mbtd1 (Entrez 103537)",liver gene expression; upregulated gene in liver: Mbtd1,0.48
same,"log2 fold-change, Mxi1 (Entrez 17859)",liver gene expression; upregulated gene in liver: Mxi1,0.29
same,"log2 fold-change, Pdcd4 (Entrez 18569)",liver gene expression; upregulated gene in liver: Pdcd4,0.36
same,"log2 fold-change, Pnldc1 (Entrez 240023)",liver gene expression; upregulated gene in liver: Pnldc1,0.83
same,"log2 fold-change, Prkag2 (Entrez 108099)",liver gene expression; upregulated gene in liver: Prkag2,0.36
same,"log2 fold-change, Rcl1 (Entrez 59028)",liver gene expression; upregulated gene in liver: Rcl1,0.28
same,"log2 fold-change, Rps15 (Entrez 20054)",liver gene expression; upregulated gene in liver: Rps15,0.38
same,"log2 fold-change, Serpina7 (Entrez 331535)",liver gene expression; upregulated gene in liver: Serpina7,0.41
same,"log2 fold-change, Smarcd2 (Entrez 83796)",liver gene expression; upregulated gene in liver: Smarcd2,0.27
same,"log2 fold-change, Syne3 (Entrez 212073)","liver gene expression; upregulated gene in liver: Syne3, treated vs untreated germ-free mice",0.57
same,"log2 fold-change, Tbc1d10a (Entrez 103724)",liver gene expression; upregulated gene in liver: Tbc1d10a,0.61
same,"log2 fold-change, Tedc2 (Entrez 72016)",liver gene expression; upregulated gene in liver: Tedc2,0.43
same,"log2 fold-change, Ube2b (Entrez 22210)",liver gene expression; upregulated gene in liver: Ube2b,0.41
same,"log2 fold-change, Uchl5 (Entrez 56207)",liver gene expression; upregulated gene in liver: Uchl5,0.34
same,"log2 fold-change, Zc3h6 (Entrez 78751)",liver gene expression; upregulated gene in liver: Zc3h6,0.63
same,"log2 fold-change, Zfp64 (Entrez 22722)",liver gene expression; upregulated gene in liver: Zfp64,0.41
same,"log2 fold-change, Zfp960 (Entrez 449000)",liver gene expression; upregulated gene in liver: Zfp960,0.60
